The values below come from BindingDB's records for doi:10.7270/Q2TQ5ZZB (Burnham Center For Chemical Genomics, 2010).

This experiment deals with G-protein coupled receptor 35 (Homo sapiens, UniProt Q9HC97). The experiment can be described thus: inhibition of zaprinast-stimulated GPR35 beta-arrestin translocation – imaging, U2OS, beta-arrestin-GFP, zaprinast agonist, primary screen (AID 2058).

For orientation: IC50 means the concentration needed to halve the response being measured. Read a high IC50 as weaker potency in that assay.

Structures can show the parent of a compound that is named as a salt.

Chain of G-protein coupled receptor 35 (Q9HC97 whole entry): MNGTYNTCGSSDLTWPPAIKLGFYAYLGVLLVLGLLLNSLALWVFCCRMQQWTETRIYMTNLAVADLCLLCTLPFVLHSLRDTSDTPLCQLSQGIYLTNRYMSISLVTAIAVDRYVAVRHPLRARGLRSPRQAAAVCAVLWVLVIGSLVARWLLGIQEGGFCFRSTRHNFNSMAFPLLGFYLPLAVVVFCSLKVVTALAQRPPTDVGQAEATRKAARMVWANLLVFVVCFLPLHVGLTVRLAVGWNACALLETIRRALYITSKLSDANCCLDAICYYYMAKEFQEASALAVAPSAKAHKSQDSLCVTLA

As to `COc1cccc(C2C3CN(C)CCC3=C(C#N)C(=N)C2(C#N)C#N)c1OC` (stereo not given) [6-Amino-8-(2,3-dimethoxy-phenyl)-2-methyl-2,3,8,8a-tetrahydro-1H-isoquinoline-5,7,7-tricarbonitrile], the IC50 was found to be 2.74 µM. Compound `CN1CCC2=C(C#N)C(=N)C(C#N)(C#N)C(c3ccsc3)C2C1` (stereo not given) [6-azanyl-2-methyl-8-thiophen-3-yl-1,3,8,8a-tetrahydroisoquinoline-5,7,7-tricarbonitrile] yielded an IC50 of 0.991 µM. Take `CN1CCC2=C(C#N)C(=N)C(C#N)(C#N)C(c3cccc(Cl)c3Cl)C2C1` (stereo not given) [6-azanyl-8-[2,3-bis(chloranyl)phenyl]-2-methyl-1,3,8,8a-tetrahydroisoquinoline-5,7,7-tricarbonitrile]: the IC50 worked out at 12 µM. For `CC1(C)Cc2c(ccc3ccccc23)C(CC(=O)N2CCCCC2)=N1` [(2Z)-2-(2,2-dimethyl-1,3-dihydrobenzo[f]isoquinolin-4-ylidene)-1-(1-piperidinyl)ethanone;hydrochloride], the IC50 worked out at 11 µM.

`Oc1ccc(CN=Nc2nc(-c3ccccc3F)nc3ccccc23)c(O)c1` [MLS000778210] showed an IC50 of 3.08 µM.
